Reference: patent US7157453B2, “Urea substituted imidazoquinolines” (3M Innovation Properties Company, priority 1999, dated 2007)
Structures can show the parent of a compound that is named as a salt.

What was measured:
[1] = system: tumor necrosis factor (α); experiment: Cytokine Induction in Human Cells: tumor necrosis factor (α) by ELISA; format: cell-based; settings: PBMC; human PBMCs, incubated 18 to 24 hours, lowest concentration found to induce tumor necrosis factor
Text: (§1) An in vitro human blood cell system was used to assess cytokine induction by compounds of the invention. Activity is based on the measurement of interferon and tumor necrosis factor (α) (IFN and TNF, respectively) secreted into culture media as described by Testerman et. al. In “Cytokine Induction by the Immunomodulators Imiquimod and S-27609”, Journal of Leukocyte Biology, 58, 365–372 (September, 1995).
(§2) Whole blood is collected by venipuncture into EDTA vacutainer tubes from healthy human donors. Peripheral blood mononuclear cells (PBMCs) are separated from whole blood by density gradient centrifugation using Histopaque®-1077 (Sigma Chemicals, St. Louis, Mo.). The PBMCs are suspended at 3–4×10^6 cells/mL in RPMI 1640 medium containing 10% fetal bovine serum, 2 mM L-glutamine and 1% penicillin/streptomycin solution (RPMI complete). The PBMC suspension is added to 48 well flat bottom sterile tissue culture plates (Costar, Cambridge, Mass. or Becton Dickinson Labware, Lincoln Park, N.J.) containing an equal volume of RPMI complete media containing test compound.
(§3) The compounds are solubilized in dimethyl sulfoxide (DMSO). The DMSO concentration should not exceed a final concentration of 1% for addition to the culture wells.
(§4) The solution of test compound is added at 60 μM to the first well containing RPMI complete and serial (three fold or ten fold) dilutions are made. The PBMC suspension is then added to the wells in an equal volume, bringing the test compound concentrations to the desired range. The final concentration of PBMC suspension is 1.5–2×10^6 cells/mL. The plates are covered with sterile plastic lids, mixed gently and then incubated for 18 to 24 hours at 37° C. in a 5% carbon dioxide atmosphere.
(§5) Following incubation the plates are centrifuged for 5–10 minutes at 1000 rpm (˜200×g) at 4° C. The cell culture supernatant is removed with a sterile polypropylene pipet and transferred to sterile polypropylene tubes. Samples are maintained at −30 to −70° C. until analysis. The samples are analyzed for interferon (α) and tumor necrosis factor (α) by ELISA
Tumor necrosis factor (α) (TNF) concentration is determined using ELISA kits available from Genzyme, Cambridge, Mass.; R&D Systems, Minneapolis, Minn.; or Pharmingen, San Diego, Calif.
(§6) The table below lists the lowest concentration found to induce interferon and the lowest concentration found to induce tumor necrosis factor for each compound.

[2] = system: interferon (α); experiment: Cytokine Induction in Human Cells: interferon (α) by ELISA; format: cell-based; settings: PBMC; human PBMCs, incubated 18 to 24 hours, lowest concentration found to induce interferon
Text: as §1, §2, §3, §4, §5
Interferon (α) concentration is determined by ELISA using a Human Multi-Species kit from PBL Biomedical Laboratories, New Brunswick, N.J.
as §6

SMILES | melting point | minimal effective concentration [1] | minimal effective concentration [2]
CCCCCc1nc2c(N)nc3c(c2n1CCCCNC(=O)N1CCOCC1)CCCC3 (as salt: hydrochloride) [Example 172, N-[4-(4-amino-2-pentyl-6,7,8,9-tetrahydro-1H-imidazo[4,5-c]quinolin-1-yl)butyl]morpholine-4-carboxamide hydrochloride] | 126.8 to 127.5 °C | – | –
Cc1nc2c(N)nc3ccccc3c2n1CCCNC(=O)N1CCOCC1 [Example 167, N-[3-(4-amino-2-methyl-1H-imidazo[4,5-c]quinolin-1-yl)propyl]morpholine-4-carboxamide] | 226 to 228 °C | – | –
COCCc1nc2c(N)nc3ccccc3c2n1CCCNC(=O)NC1CCCCC1 [Example 158, N-{3-[4-amino-2-(2-methoxyethyl)-1H-imidazo[4,5-c]quinolin-1-yl]propyl}-N′-cyclohexylurea] | 179 to 180 °C | 1.11 µM | 0.01 µM
CCCCc1nc2c(N)nc3ccccc3c2n1CCCCCCCCNC(=O)Nc1ccccc1 [Example 154, N-[8-(4-amino-2-butyl-1H-imidazo[4,5-c]quinolin-1-yl)octyl]-N′-phenylurea] | 153 to 155 °C | 1.11 µM | 0.37 µM
CC(C)(C)OC(=O)NCCCn1c(CCCOc2ccccc2)nc2c(N)nc3ccccc3c21 [Example 174, tert-butyl 3-[4-amino-2-(3-phenoxypropyl)-1H-imidazo[4,5-c]quinolin-1-yl]propylcarbamate] | 151 to 153 °C | > 30 µM | > 30 µM
Nc1nc2ccccc2c2c1nc(-c1ccccc1)n2CCCCNC(=S)Nc1cccnc1 [Example 14, N-[4-(4-Amino-2-phenyl-1H-imidazo[4,5-c]quinolin-1-yl)butyl]-N′-(3-pyridyl)thiourea] | 118 to 120 °C | – | –
CCCCc1nc2c(N)nc3ccccc3c2n1CCCNC(=S)Nc1ccccc1 [Example 149, N-[3-(4-amino-2-butyl-1H-imidazo[4,5-c]quinolin-1-yl)propyl]-N′-phenylthiourea] | 142.8 to 144 °C | 0.37 µM | 0.04 µM
CCCNC(=S)NCCCCn1c(-c2ccccc2)nc2c(N)nc3ccccc3c21 [Example 13, N-[4-(4-Amino-2-phenyl-1H-imidazo[4,5-c]quinolin-1-yl)butyl]-N′-propylthiourea] | 113 to 116 °C | – | –
Nc1nc2ccccc2c2c1ncn2CCCCNC(=O)Oc1ccc2ccccc2c1 | 154 to 155 °C | – | –
Nc1nc2ccccc2c2c1ncn2CCCCNC(=O)Oc1cccc2ccccc12 | 89 to 92 °C | – | –
Nc1nc2ccccc2c2c1nc(-c1ccccc1)n2CCCCNC(=O)Nc1ccc(F)cc1 [Example 15, N-[4-(4-amino-2-phenyl-1H-imidazo[4,5-c]quinolin-1-yl)butyl]-N′-(4-fluorophenyl)urea] | 145 to 150 °C | – | –
Nc1nc2ccccc2c2c1ncn2CCCCNC(=O)NC1CCCCC1 [Example 39] | – | 10 µM | 1.11 µM
COCCc1nc2c(N)nc3ccccc3c2n1CCCCNC(=O)N(C)c1ccccc1 [Example 120] | – | 0.01 µM | 0.0001 µM
COCCc1nc2c(N)nc3ccccc3c2n1CCCCNC(=O)Nc1ccccc1Br [Example 119] | – | 10 µM | 10 µM
N#Cc1cccc(NC(=O)NCCCCn2cnc3c(N)nc4ccccc4c32)c1 [Example 28] | – | 3.33 µM | 1.11 µM
Nc1nc2ccccc2c2c1ncn2CCCCNC(=O)Nc1cc(Cl)cc(Cl)c1 [Example 29] | – | 10 µM | > 30 µM
CC(C)c1ccc(NC(=O)NCCCCn2cnc3c(N)nc4ccccc4c32)cc1 [Example 27] | – | > 30 µM | > 30 µM
COCCc1nc2c(N)nc3c(c2n1CCCCNC(=O)N1CCOCC1)CCCC3 [Example 135] | – | 10 µM | 0.01 µM
CCCNC(=O)NCCCCn1cnc2c(N)nc3ccccc3c21 [Example 26] | – | > 30 µM | 10 µM
CCCCc1nc2c(N)nc3ccccc3c2n1CCCCNC(=O)Nc1ccccc1Cl [Example 86] | – | 1 µM | 0.1 µM

SMILES | melting point | minimal effective concentration [1] | minimal effective concentration [2]
Nc1nc2ccccc2c2c1nc(CCCOc1ccccc1)n2CCCNC(=O)N1CCOCC1 [Example 166, N-{3-[4-amino-2-(3-phenoxypropyl)-1H-imidazo[4,5-c]quinolin-1-yl]propyl}morpholine-4-carboxamide] | 198.8 to 199.9 °C | – | –
COCCc1nc2c(N)nc3ccccc3c2n1CCCCNC(=O)Nc1cccc(C#N)c1 [Example 108] | – | 0.0001 µM | 0.0001 µM
CCCCc1nc2c(N)nc3c(c2n1CCCCNC(=O)NC12CC4CC(CC(C4)C1)C2)CCCC3 [Example 132] | – | 1 µM | 0.01 µM
COc1ccc(Cc2nc3c(N)nc4ccccc4c3n2CCCCNC(N)=O)cc1 [Example 10, N-{4-[4-Amino-2-(4-methoxybenzyl)-1H-imidazo[4,5-c]quinolin-1-yl]butyl}urea] | 196 °C (dec.) | – | –
CC(C)(C)CC(C)(C)NC(=O)NCCCCn1cnc2c(N)nc3ccccc3c21 [Example 32] | – | 10 µM | 10 µM
COCCc1nc2c(N)nc3ccccc3c2n1CCCCNC(=O)N[C@H](C)c1ccccc1 [Example 110] | – | 1 µM | 0.001 µM
Nc1nc2ccccc2c2c1ncn2CCCCNC(=O)Nc1ccccc1 [Example 16] | – | 10 µM | 1.11 µM
CCCCc1nc2c(N)nc3ccccc3c2n1CCCCNC(=O)NCc1ccc(C)cc1 [Example 84] | – | 1 µM | 0.1 µM
Nc1nc2ccccc2c2c1ncn2CCCCNC(=O)Nc1cc(C(F)(F)F)cc(C(F)(F)F)c1 [Example 23] | – | 10 µM | > 30 µM
COCCc1nc2c(N)nc3ccccc3c2n1CCCCNC(=O)Nc1c(Cl)cccc1Cl [Example 118] | – | 10 µM | 10 µM
CCCNC(=S)NCCCCn1c(CCOC)nc2c(N)nc3ccccc3c21 [Example 127] | – | 1 µM | 0.0001 µM
CCCCc1nc2c(N)nc3ccccc3c2n1CCNC(=O)NS(=O)(=O)c1ccc(Cl)cc1 [Example 140] | – | > 10 µM | 10 µM
COCCc1nc2c(N)nc3ccccc3c2n1CCCCNC(=O)Nc1cccc(C)c1 [Example 106] | – | 1 µM | 0.0001 µM
CC(C)(C)OC(=O)NCCCCn1c(-c2ccccc2)nc2c(N)nc3ccccc3c21 [Example 12, tert-Butyl N-[4-(4-Amino-2-phenyl-1H-imidazo[4,5-c]quinolin-1-1)butyl]carbamate] | 182 to 183 °C | – | –
Nc1nc2ccccc2c2c1ncn2CCCCNC(=O)Nc1ccccc1[N+](=O)[O-] [Example 41] | – | 10 µM | 1.11 µM
COCCc1nc2c(N)nc3ccccc3c2n1CCCCNC(=O)Nc1ccccc1 [Example 104] | – | 1 µM | 0.0001 µM
CCCCc1nc2c(N)nc3ccccc3c2n1CCCCNC(=O)NCc1ccc(OC)cc1 [Example 89] | – | 10 µM | 0.1 µM
CCCCCCNC(=O)NCCCCn1cnc2c(N)nc3ccccc3c21 [Example 25] | – | > 30 µM | 3.33 µM
COCCc1nc2c(N)nc3c(c2n1CCCNC(=O)N1CCOCC1)CCCC3 [Example 168, N-{3-[4-amino-2-(2-methoxyethyl)-6,7,8,9-tetrahydro-1H-imidazo[4,5-c]quinolin-1-yl]propyl}morpholine-4-carboxamide] | 171.8 to 173.2 °C | – | –
CCCCCc1nc2c(N)nc3c(c2n1CCCCNC(=O)N1CCOCC1)CCCC3 [Example 172, N-[4-(4-amino-2-pentyl-6,7,8,9-tetrahydro-1H-imidazo[4,5-c]quinolin-1-yl)butyl]morpholine-4-carboxamide hydrochloride] | – | 0.37 µM | 0.01 µM
